In paper PMC11362529, “Exploring the neuroprotective potential of Nrf2-pathway activators against annonacin toxicity” (Scientific Reports, 2024):

What was measured:
[1] = system: LUHMES cells; assay: Intracellular ATP levels (ViaLight plus kit); format: cell-based, human; conditions: for intracellular ATP levels: protective concentration of compound + 20 nM annonacin, 24 h
Protocol: Mitochondrial activity was estimated by the reduction of MTT (3-(4,5-dimethylthiazol-2-yl)-2,5-diphenyltetrazolium, Sigma-Aldrich). Briefly, LUHMES cells were seeded on PLO/FN-coated 48-well microplates, in triplicates. After a 24 h treatment with 20 nM of annonacin and the protective concentrations of Nrf2-pathway activators in glucose-reduced medium, cells were incubated with 0.5 mg/ml of MTT dissolved in PBS, at 37 °C for 30 min. After that, the medium was removed and the plate was frozen at -80 °C for 1 h, for cell lysing. Next, the plate was thawed and the MTT crystals were completely dissolved in 250 µl of DMSO with vigorous shaking. The absorbance was measured on a FLUOstar® Omega plate reader at λ = 590 nm, using λ = 630 nm absorbance as a background correction. The obtained results were analyzed with the MARS data analysis software (BMG LabTech). After background subtraction, the data were expressed as a percentage of MTT reduction relative to the control (DMSO-treated) condition. Determination of cellular ATP levels was done by using the ViaLight™ plus kit (Lonza, Basel, Switzerland), following the manufacturer’s instructions. Cells were seeded on PLO/FN-coated 48-well microplates and the pharmacological treatments were done similarly as to the assessment of the MTT reduction. On the next day, the medium was removed and cells were washed once with warm HBSS and rested in 210 µl HBSS. The plate was left to reach RT before adding 70 µl cell lysis reagent to each well, provided by the kit. After a 10 min incubation, 10 µl of each lysed cell extract was transferred to a 384-well white plate and combined with 10 µl of ATP monitoring reagent plus. The plate was incubated in the dark for 10 min at RT before the luminescence signal was measured on a FLUOstar® Omega plate reader. The obtained results were analyzed with the MARS data analysis software (BMG LabTech) and expressed as RLUs. For background correction, the RLUs detected for the background control (i.e., 10 µl of ATP monitoring reagent plus combined with 10 µl of cell lysis reagent) were subtracted from the measured RLUs values of all testing conditions.

[2] = system: Nrf2; assay: Nrf2 nuclear translocation (cell fractionation, Western blot); format: cell-based, human; conditions: 4 h treatment
Protocol: For fractionation experiments, LUHMES were seeded on double-coated T25 flasks and submitted to pharmacological treatments. Afterwards, the medium was removed and cells were briefly washed with warm HBSS, and trypsinized for 5 min at 37 °C. The cells were pelleted at 500×g for 5 min at 4 °C, washed once with ice-cold PBS (phosphate buffered saline), and centrifuged at 500 g for 2 min at 4 °C. Nuclear protein extraction was achieved using the NE-PER™ nuclear and cytoplasmic extraction kit (Thermo Fisher Scientific), according to the manufacturer’s instructions. Briefly, the pellet was resuspended in 50 µl of CER I buffer, supplemented with Halt™ protease and phosphatase inhibitor cocktail (Thermo Fisher Scientific), and incubated on ice for 10 min, followed by the addition of 2.75 µl of CER II, and a 2 min incubation on ice after vortexing. The samples were then centrifuged at maximum speed for 10 min at 4 °C and the cytoplasmic fraction was saved. The nuclear pellet was washed with ice-cold PBS and resuspended in 25 µl of NER buffer supplemented with protease and phosphatase inhibitors, followed by 6 cycles of 10 min incubation on ice, with 15 s of vortexing between each cycle. Finally, the samples were centrifuged at maximum speed for 10 min at 4 °C and the nuclear fraction was transferred to a new tube. All protein extracts were stored long-term at − 80 °C.
The concentrations of protein extracts were determined by BCA (bicinchoninic acid) assay, using the Pierce™ BCA protein assay kit (Thermo Fisher Scientific), according to the manufacturer’s instructions. Absorbance values were measured on a FLUOstar® Omega plate reader. For Western blot analysis, sample volumes were diluted in PBS to ensure that equal amounts of total protein were loaded. For fractionated samples, 30 µg of cytoplasmic fraction and 15 µg of nuclear fraction were applied. Samples were denatured by heating at 95 °C for 5 min on a ThermoMixer C (Eppendorf, Wesseling-Berzdorf, Germany) with 4 × Laemmli sample buffer supplemented with 10% β-ME (β-mercaptoethanol). SDS–PAGE was performed using 7.5% Criterion™ TGX™ precast midi gels in a Tris–glycine-SDS running buffer (Bio-Rad). The proteins were blotted onto PVDF membranes, using a trans-blot turbo transfer system (Bio-Rad) at 25 V for 30 min. The membranes were blocked for 1 h at RT, with 3 × Roti®-Block solution (Carl Roth, Karlsruhe, Germany) or 5% nonfat-dry milk in 0.05% TBST (Tris-buffered saline with 0.05% Tween20), in the case of the Nrf2 antibody. Membranes were incubated at 4 °C overnight under gentle shaking with the appropriate primary antibody solutions as listed in Supplementary Table S2. On the following day, the membranes were washed with TBST, and incubated with the HRP-secondary antibodies for 2 h at RT (Supplementary Table S2). After further washing, the membranes were exposed to Clarity Western ECL Substrate (Bio-Rad), or SuperSignal West Femto Maximum Sensitivity Substrate (Thermo Fisher Scientific) in the case of the Nrf2 antibody. Chemiluminescence signal was detected with an Odyssey® Fc imaging system (LI-COR Biosciences, Bad Homburg, Germany) and analyzed by Image Studio™ software (LI-COR Biosciences). Fraction purity was confirmed and signal intensity normalized to housekeeping proteins, using β-III tubulin for the cytoplasmic fraction and lamin A for the nuclear fraction. Protein expression was expressed as fold change relative to the control (DMSO-treated) condition.

[3] = absence of annonacin, vs control

| SMILES | intracellular ATP levels [1] | Nrf2 expression in the nuclear fraction, normalized to lamin A [2, 3] | Nrf2 expression in the nuclear fraction, normalized to lamin A ([2]; presence of 20 nM annonacin) | ATP production ([1]; annonacin alone) |
| --- | --- | --- | --- | --- |
| O=C1[C@H](CC[C@H](O)c2ccc(F)cc2)[C@@H](c2ccc(O)cc2)N1c1ccc(F)cc1 [ezetimibe] | lower intracellular ATP levels | no evidence of increasing the Nrf2 nuclear expression | no evidence of increasing the Nrf2 nuclear expression | – |
| CCCCCCCCCCCC[C@@H](O)[C@H]1CC[C@H]([C@H](O)CCCC[C@H](O)CCCCC[C@@H](O)CC2=CC(C)OC2=O)O1 (stereo partly shown) [annonacin] | – | – | – | impaired ATP production |
| C=CC(C)(C)c1cc(/C=C/C(=O)c2ccc(O)cc2)c(OC)cc1O [licochalcone A] | lower intracellular ATP levels | significantly increased expression of Nrf2 protein in the nuclear fraction | higher expression of Nrf2 in the nuclear fraction | – |
| Cn1c(Nc2nc3ccc(C(F)(F)F)cc3s2)nc2cc(C(=O)NCCOCCO)ccc21 [HPP-D] | intracellular ATP levels no longer statistically different from healthy control cells | significantly increased expression of Nrf2 protein in the nuclear fraction | higher expression of Nrf2 in the nuclear fraction | – |
